The text below walks through data of patent US11370897B2, “Curable composition comprising UV stabilizer” (Momentive Performance Materials Inc., priority 2019, dated 2022).

A short description of the data set: Solubility tests of resorcinol products in alcoholic solvents. Particulars: organic solvent or mixture, thermodynamic from solid, 20° C., Table 11, by product ratio DBMR/BTMR/DTMR. Format: physicochemical. The procedure:
To determine the solubility of resorcinol products, the following procedure was used:
0.50 g of pre-dried product (45 min @75° C. in oven) was combined with 5.00 ml of solvent (4.03 g of 2-butanol or 4.60 g of 1-methoxy-2-propanol). The mixture was handled in an ultrasonic bath for 1 min and stored afterwards under constant climate (20° C.) for 24 h.
The overlying solution was transfused carefully with a pipette. The solid content of this solution was measured thermogravimetrically with a halogen moisture analyzer (Mettler Toledo). This test procedure was repeated three times.

The mark [1] stands for this setting: 1-methoxy-2-propanol, read-out: Solubility in 1-Methoxy-2-propanol.
Setting [2] is: 2-butanol, read-out: Solubility in 2-butanol.

Like-named read-outs stand apart in the source and are kept apart here.

Take `Cc1c(O)c(C(=O)c2ccccc2)cc(C(=O)c2ccccc2)c1O` [DBMR, dibenzoylacyl-2-methyl resorcinol]: the solubility – broadly, the concentration that dissolves in the medium under given conditions – at 24 h is 4000 µg/mL under setting [1] and < 1000 µg/mL under setting [2].
In the same order, the values of `Cc1cccc(C(=O)c2cc(C(=O)c3cccc(C)c3)c(O)c(C)c2O)c1` [DTMR, ditoluoylacyl-2-methyl resorcinol] are 15000 µg/mL and 1000 µg/mL.
